What was measured:
[1] = system: MC38 mouse colon cancer cell line; test: Antitumor efficacy in MC38 mouse model of colon adenocarcinoma (tumor volume, % TGI); type: in vivo, mouse (C57BL/6); conditions: day 10, Mifamurtide 30 μg biw and/or PD-1 antagonist 5 mg/kg biw
From the text: Six to seven-week-old female C57BL/6 mice (20±4 g weight) were used in the studies. Mice received food and water ad libitum. The study protocol, the procedures involving the care and use of animals were reviewed and approved by the Institutional Animal Care and Use Committee (IACUC) to ensure compliance with the regulations of the Association for Assessment and Accreditation of Laboratory Animal Care (AAALAC).
(§1) DMEM medium (Cat. No.: 11960-044). Glutamax™ (Cat. No.: 35050061), Trypsin-EDTA (0.25%) (Cat. No.: 25200-056), Penicillin-Streptomycin (Cat. No.: 15070-063), Hanks' Balanced Salt solution (Cat. No.: 14175-095) were procured form Gibco, while Fetal Bovine Serum (FBS) Cat. No.: 004-001-1A was purchased from Biological Industries. PD-1 antagonist (Cat. No.: BE0146) was supplied by BioXcell. Stock solutions of PD-1 antagonist at 1 mg/ml were kept at 4° C. prior to use. Dosing solutions of PD-1 antagonist were prepared freshly before every administration in sterile phosphate buffered saline (pH 7.0) and maintained at 4° C. The test article Mifamurtide was procured from Sigma (SML0195) and prepared freshly as a working solution at concentration of 300 μg/ml and 100 μg/ml in sterile phosphate buffered saline (pH 7.0), to be administered at a total dose of 30 μg (corresponds to 1.5 mg/kg in mice) and 10 μg (corresponds to 0.5 mg/kg in mice) respectively, into the animal as indicated in Table 1. Luminex assay kit: MCYTOMAG-70K-32 was commercially available from Millipore, was used to analyze the cytokines and chemokines in the serum samples.
MC38 mouse colon cancer cell line as provided by GenScript were maintained as monolayer culture in DMEM supplemented with 10% fetal bovine serum (FBS), 1% Glutamax™ and 1% Penicillin-Streptomycin at 37° C. in an atmosphere with 5% CO2. The cells were routinely sub-cultured every 2 days to maintain growth at exponential phase. The tumor cells growing in exponential growth phase were harvested by trypsinization, followed by centrifugation at 335×g relative centrifugal force (RCF) in a centrifuge. The supernatant was subsequently removed by aspiration. Cell pellet was re-suspended in approximately 10× volume of cell culture medium and counted. The cell suspension was centrifuged again and processed as above and finally re-suspended in HBSS at a density of 1×10^7 cells per ml. Cell viability was determined to be ≥95% by trypan blue staining. […]
Tumor size and body weights were measured twice weekly.
Tumor size was measured twice per week in 2 dimensions using a caliper (recorded up to one decimal point). Tumor volume, expressed in mm^3, was calculated using the following formula, in which “a” and “b” were the long and the short diameters of a tumor, respectively. […]

[2] = system: cytokines (IFN-γ, IL-6, IL-12p40, and TNF-α) and chemokines (MCP-1 and MIP-2); test: Luminex analysis of serum cytokines and chemokines in MC38 tumor bearing mice; type: in vivo, mouse (C57BL/6)
Method: as §1
The immuno-modulatory effect of Mifamurtide at dose of 30 μg (b.i.w.) in the presence and absence of PD-1 antagonist at dose 5 mg/kg (b.i.w.) was also analysed. Luminex analysis was done to check the levels of cytokines (IFN-γ, IL-6, IL-12p40, and TNF-α) and chemokines (MCP-1 and MIP-2). […] Although all Mifamurtide doses and combinations were tolerated with no early death and sustained effect on body weight (data not shown).

[3] = post (8 hours) vs pre, Mifamurtide 30 μg and/or PD-1 antagonist 5 mg/kg
[4] = post (Day 11) vs pre, Mifamurtide 30 μg and/or PD-1 antagonist 5 mg/kg
[5] = serum, 8 hours post dose, Mifamurtide 30 μg and/or PD-1 antagonist 5 mg/kg
[6] = serum, Day 11, Mifamurtide 30 μg and/or PD-1 antagonist 5 mg/kg
[7] = serum, before dosing, Mifamurtide 30 μg and/or PD-1 antagonist 5 mg/kg group

Substance: Mifamurtide
- TGI % & SEM (with ref. to Mifamurtide) [1]: 0.00%
- TGI % (±SEM) (with ref. to PD-1 Antagonist) [1]: −39.48%
- TGI % (±SEM) (with ref. to vehicle) [1]: −8.36%
- Tumor volume (mm^3) (±SEM) ([1]; mean, i.p.): 2791.64 mm^3
- IFN gamma, Fold change [2, 3]: 0.0
- IL-6, Fold change [2, 3]: 10.85
- MCP-1, Fold change [2, 3]: 1.5
- TNF-alpha, Fold change [2, 3]: 1.6
- IL-12p40, Fold change [2, 4]: 1.0
- MIP-2, Fold change [2, 4]: 0.7
- IFN gamma, Post (8 hours) [2, 5]: 0 picogram/ml
- IL-6, Post (8 hours) [2, 5]: 14.43 picogram/ml
- MCP-1, Post (8 hours) [2, 5]: 23.54 picogram/ml
- TNF-alpha, Post (8 hours) [2, 5]: 3.33 picogram/ml
- IL-12p40, Post (Day 11) [2, 6]: 1.55 picogram/ml
- MIP-2, Post (Day 11) [2, 6]: 13.67 picogram/ml
- IFN gamma, Pre [2, 7]: 0 picogram/ml
- IL-6, Pre [2, 7]: 1.33 picogram/ml
- IL-12p40, Pre [2, 7]: 1.55 picogram/ml
- MCP-1, Pre [2, 7]: 15.9 picogram/ml
- MIP-2, Pre [2, 7]: 20.84 picogram/ml
- TNF-alpha, Pre [2, 7]: 2.13 picogram/ml

— US20190008918A1, “IMMUNOMODULATION THERAPIES FOR CANCER” (BIOXCEL CORPORATION, priority 2016, published 2019)
